Patent US5206220A (Research Corporation Technologies, Inc., priority 1991, dated 1993)
Converted amounts (≈) assume the structure as drawn. “And” between values parts separate entries of the source, which are not always exact repeats. Equal entries are not always repeated. Where two headings read alike, the source gives them in different places. Values belong to the compound of their own block, whether it stands above or below them. Peptide text beside a SMILES is read from it.

Key:
cells = details: cited from earlier work
[1] = storage in aqueous solution, diketopiperazine formation; cited from earlier work
[2] = rats, after 24 h, cited from earlier work
[3] = cited from earlier work
[4] = cited from earlier work; remark: listed apart in the source
[5] = rats, 0.5 mmol/kg; same value at longer times; cited from earlier work
[6] = administered for TPN; cited from earlier work
[7] = cited from earlier work; remark: listed apart in the source
[8] = γ-GluGln stability in Aminosyn-PF 10%; format: physicochemical; details: sterile, room temperature, one month, 4.5 and 9 months
Protocol: (§1) Sci. 18:233-236] or accomplished by standard amino acid analysis techniques.
To determine the stability of γ-GluGln under typical storage conditions, γ-GluGln was added to Aminosyn-PF 10% under sterile conditions and left at room temperature.

[9] = Clearance of γ-GluGln from plasma, release of plasma glutamine; format: in vivo, mice; details: for Glutamine Concentration (plasma), individual mice / Glutamine Concentration (plasma), Mean + Standard Error: 29 μmoles γ-GluGln i.v.; for Glutamine Concentration (plasma), Mean + Standard Error: N = 6
Protocol: as §1
Mice were injected with 29 μmoles of γ-GluGln via the external jugular vein. Control animals were injected with an equal volume of saline. Blood was sampled at 10 min. and at 60 min after injection.

[10] = Stability of γ-GluTyr in a TPN amino acid solution; format: physicochemical; details: equal volumes 1.8 mM γ-GluTyr and Aminosyn-PF 10%, pH 5.5, ultrafiltered, room temperature, nine-month period, HPLC
Protocol: B. In a TPN amino acid solution: Equal volumes of 1.8 mM γ-GluTyr and Aminosyn-PF 10% (Abbott Laboratories) were mixed and the pH was adjusted to 5.5. The mixture thus contained similar concentrations of the peptide and of several amino acids, including phenylalanine and histidine. A sample was taken for analysis, and the remainder of the solution was sterilized by ultrafiltration and stored at room temperature (typical storage conditions for TPN amino acid solutions). Samples for analysis were also taken at intervals over a nine-month period. All samples were analyzed by HPLC as described above.

[11] = Clearance of γ-GluTyr from plasma after i.v. injection; format: in vivo, mice
Protocol: Injections of 20 μl of 140 mM γ-GluTyr (2.8 μmol) were made in the external jugular vein of 30-40 g mice. The amount of γ-GluTyr was measured in the plasma at 10 min and 60 min post-injection in each animal.

γ-GTase = target: T1, γ-GTase (Mus musculus, UniProt Q60928); experiment: Effects of inhibiting γ-GTase with acivicin in mice injected with γ-GluTyr; format: in vivo; details: for Tyr (plasma) / Phe (plasma) / γ-GluTyr (plasma): 2.8 μmol γ-GluTyr i.v., 10 min postinjection; for γ-GluTyr excreted: lost in the urine at 60 min postinjection
T1 construct: from tissue; host or cells: live mice (whole animal; kidney named as a site of high activity)
Protocol: To test the role of γ-GTase in degradation of γ-GluTyr in vivo an additional experiment was conducted. […] Control mice received saline rather than acivicin prior to intravenous injection of 2.8 μmol of γ-GluTyr. In test mice, an intraperitoneal injection of acivicin was made 90 min prior to the injection of 2.8 μmol γ-GluTyr. Plasma was sampled after 10 min and 60 min, and urine was collected after 60 min.
The kidney is generally unable to prevent the loss of intact peptides in the urine. Instead, peptides are hydrolyzed to free amino acids, which can then be salvaged by absorption into the bloodstream. […] When γ-GTase is inhibited by acivicin, unhydrolyzed peptide should be lost in the urine. The data in Table 5 are consistent with a role for γ-GTase in the hydrolysis of γ-GluTyr to prevent its excretion in the urine. When this enzyme is inhibited by acivicin, the amount of unhydrolyzed peptide which appears in the urine in 60 min increases markedly over peptide found in the urine of control mice.

[12] = target: T2, bovine kidney γ-GTase (Sigma Type II) (Bos taurus, UniProt G3N2D8); experiment: In vitro release of tyrosine from γ-GluTyr by γ-glutamyl transpeptidase; format: biochemical; details: γ-GluTyr in Aminosyn-PF 10%, pH 7.4, monitored by HPLC
T2 construct: the solution treated with bovine kidney γ-GTase (Sigma Type II) at pH 7.4; purchased Sigma Type II; host or cells: bovine kidney (tissue-derived)
Protocol: The most likely route for metabolic degradation of γ-GluTyr involves the enzyme, γ-glutamyl transpeptidase (γ-GTase), a widely distributed enzyme in mammalian tissues. In an in vitro test of this hypothesis, γ-GluTyr was added to Aminosyn-PF 10% and the solution treated with bovine kidney γ-GTase (Sigma Type II) at pH 7.4.

[13] = Distribution of γ-GluTyr in urine and plasma; format: in vivo, mice
Protocol: Urine was collected from mice injected with γ-GluTyr to determine whether or not the peptide was excreted into the urine. Mice were anesthetized with pentobarbital and then injected with 20 μl 140 mM γ-GluTyr (2.8 μmol). No urine was voided during the 60-min experiment, during which time the mice remained anesthetized. At the end of the experiment, the urinary bladders were tied off, removed and blood was collected from the heart for analysis. At the end of 60 min, a maximum of 0.13% of the injected γ-GluTyr was excreted in the urine whereas the plasma contained 12-25 μM γ-GluTyr. If these mice are assumed to have a total plasma volume of 4 ml, then only about 4% of the injected γ-GluTyr remained in the plasma at 60 min post-injection.

[14] = mice, 20 μL 140 mM γ-GluTyr, 10 min postinjection

T1 sequence (Q60928 1-379 limits assumed): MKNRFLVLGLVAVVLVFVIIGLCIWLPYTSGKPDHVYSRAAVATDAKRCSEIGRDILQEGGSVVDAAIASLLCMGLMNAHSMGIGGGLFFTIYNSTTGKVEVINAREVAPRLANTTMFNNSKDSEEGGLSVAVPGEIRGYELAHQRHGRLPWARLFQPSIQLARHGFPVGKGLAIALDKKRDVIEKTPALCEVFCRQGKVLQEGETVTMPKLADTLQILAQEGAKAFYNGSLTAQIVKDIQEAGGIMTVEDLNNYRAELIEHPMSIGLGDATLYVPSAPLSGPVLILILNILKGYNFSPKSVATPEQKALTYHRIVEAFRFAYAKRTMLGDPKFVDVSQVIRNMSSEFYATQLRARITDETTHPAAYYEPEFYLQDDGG
T1 sequence (Q60928 380-568 limits assumed): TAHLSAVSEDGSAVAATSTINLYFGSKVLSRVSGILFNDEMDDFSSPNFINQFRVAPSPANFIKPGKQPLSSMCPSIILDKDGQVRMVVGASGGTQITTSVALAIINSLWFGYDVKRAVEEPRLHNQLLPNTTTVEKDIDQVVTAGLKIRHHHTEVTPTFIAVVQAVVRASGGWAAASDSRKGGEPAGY
T2 sequence (G3N2D8 1-379 limits assumed): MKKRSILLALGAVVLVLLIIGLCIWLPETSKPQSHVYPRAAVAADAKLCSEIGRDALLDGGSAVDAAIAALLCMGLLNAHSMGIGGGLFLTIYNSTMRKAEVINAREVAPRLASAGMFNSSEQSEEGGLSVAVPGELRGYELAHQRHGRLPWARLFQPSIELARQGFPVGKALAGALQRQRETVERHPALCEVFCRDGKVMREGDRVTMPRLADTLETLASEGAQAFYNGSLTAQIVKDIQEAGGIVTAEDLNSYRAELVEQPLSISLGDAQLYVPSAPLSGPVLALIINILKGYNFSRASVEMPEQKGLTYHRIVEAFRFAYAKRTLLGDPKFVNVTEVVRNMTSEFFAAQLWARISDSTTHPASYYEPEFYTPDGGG
T2 sequence (G3N2D8 380-568 limits assumed): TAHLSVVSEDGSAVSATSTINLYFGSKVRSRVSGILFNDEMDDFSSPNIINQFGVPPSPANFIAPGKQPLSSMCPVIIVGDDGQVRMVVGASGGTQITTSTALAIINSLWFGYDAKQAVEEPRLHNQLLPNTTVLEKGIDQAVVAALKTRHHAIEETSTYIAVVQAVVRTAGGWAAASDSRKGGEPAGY

SMILES: N[C@@H](CCC(=O)N[C@@H](CSSC[C@H](NC(=O)CC[C@H](N)C(=O)O)C(=O)O)C(=O)O)C(=O)O [(γ-GluCys)2, N,N'-bis(γ-glutamyl)cystine]
transport into cells (cells): are transported

SMILES: C[C@H](N)C(=O)N[C@@H](CCC(N)=O)C(=O)O [AlaGln, alanylglutamine] (H-Ala-Gln-OH)
stability in aqueous solution [1]: unstable during prolonged storage in aqueous solution

SMILES: C[C@H](N)C(=O)N[C@@H](Cc1ccc(O)cc1)C(=O)O [AlaTyr, L-alanyl-L-tyrosine] (H-Ala-Tyr-OH)
plasma tyrosine levels ([2]; 0.5 mmol/kg/day): unchanged | plasma tyrosine levels ([2]; 2 mmol/kg/day): increased two-fold | stability in aqueous solution [1]: unstable in aqueous solution

SMILES: Cl.N[C@@H](CS)C(=O)O [Cysteine-HCl, Cysteine-hydrochloride]
plasma ratio of cysteine to methionine (Cys/Met) ([3]; infants on TPN supplemented with L-cysteine-HCL): 0.6 | adverse effect in TPN ([3]; some treated low-birth-weight infants): implicated in the production of acidosis

SMILES: N[C@@H](CSSC[C@H](N)C(=O)O)C(=O)O [Cystine]
solubility in water [4]: 10 µg/mL (≈ 41.6 µM)

SMILES: N[C@@H](CCC(=O)N[C@@H](CS)C(=O)NCC(=O)O)C(=O)O [GSH, gamma-glutamyl-cysteinylglycine, reference compound]
transport into cells (cells): does not appear to be transported into cells

SMILES: NCC(=O)N[C@@H](CCC(N)=O)C(=O)O [GlyGln, glycylglutamine] (H-Gly-Gln-OH)
stability in aqueous solution [1]: unstable during prolonged storage in aqueous solution

SMILES: NCC(=O)N[C@@H](Cc1ccc(O)cc1)C(=O)O [GlyTyr, L-glycyl-L-tyrosine] (H-Gly-Tyr-OH)
stability in aqueous solution [1]: unstable during storage in aqueous solution | rise of plasma tyrosine levels compared with AlaTyr [5]: did not increase as rapidly

SMILES: CC(=O)N[C@@H](CSSC[C@H](NC(C)=O)C(=O)O)C(=O)O [N,N'-bis-acetylcystine]
urinary losses [6]: large urinary losses

SMILES: CC(=O)N[C@@H](CS)C(=O)O [NAcCys, N-acetylcysteine]
NAcCys levels (plasma) ([7]; four hours after administration (from 2)): 488 µmol/L | plasma levels of cysteine ([7]; four hours after administration of 5 g cysteine in a 200 mg/ml solution as NAcCys (basal 207)): 134 µM | administered NAcCys excreted in the urine ([7]; within 4 h): 11%

SMILES: NC(CCC(=O)NC(CSSCC(N)C(=O)O)C(=O)O)C(=O)O [γ-Glu(Cys)2, γ-L-glutamyl-L-cystine]
transport into cells (cells): are transported

stability of γ-GluGln under typical storage conditions [8]: remained stable | Glutamine Concentration (plasma), Mean + Standard Error ([9]; 10 min): 699 ± 24 µM | Glutamine Concentration (plasma), Mean + Standard Error ([9]; 60 min): 498 ± 64 µM | mice with γ-GluGln detected in the plasma ([9]; 29 μmoles γ-GluGln via external jugular vein, 10 min): three of six | appearance of γ-GluGln in the urine ([9]; mice not pretreated with acivicin): did not appear in the urine
SMILES: NC(=O)CC[C@H](NC(=O)CC[C@H](N)C(=O)O)C(=O)O [γ-GluGln, gamma-L-glutamyl-L-glutamine]
Glutamine Concentration (plasma), individual mice ([9]; 10 min): 675 µM and 762 µM and 614 µM and 693 µM and 681 µM and 770 µM | Glutamine Concentration (plasma), individual mice ([9]; 60 min): 565 µM and 586 µM and 457 µM and 198 µM and 555 µM and 629 µM

levels of γ-GluTyr and tyrosine during storage [10]: unchanged | clearance of γ-GluTyr from plasma ([11]; mice 30-40 g, 20 μl of 140 mM (2.8 μmol) external jugular vein, 10 min to 60 min post-injection): 2.2 to 2.6 µM/min | Plasma Phe [11, 14]: 89 ± 8 µM | Plasma Tyr [11, 14]: 126 ± 14 µM | increase of plasma concentration of tyrosine ([11]; mice, 40 μl of 140 mM γ-GluTyr, between 5 and 10 min post-injection): 32% | fall of plasma concentration of tyrosine ([11]; mice, 40 μl of 140 mM γ-GluTyr, between 10 and 60 min post-injection): 32% | clearance rate of γ-GluTyr from plasma ([11]; mice, 40 μl of 140 mM, external jugular vein): 6.8 µM/min | Tyr (plasma) (γ-GTase; acivicin + (2 mg/30 g mouse i.p. 90 min before)): 96 ± 1 µM | Phe (plasma) (γ-GTase; acivicin +): 96 ± 6 µM | γ-GluTyr (plasma) (γ-GTase; acivicin +): 247 ± 17 µM | γ-GluTyr excreted (γ-GTase; acivicin +): 16-48 % of total | Tyr (plasma) (γ-GTase; acivicin - (saline)): 126 ± 14 µM | Phe (plasma) (γ-GTase; acivicin -): 89 ± 8 µM | γ-GluTyr (plasma) (γ-GTase; acivicin -): 112 ± 15 µM | γ-GluTyr excreted (γ-GTase; acivicin -): 0.05-0.19 % of total | release of tyrosine from γ-GluTyr by the enzyme [12]: released tyrosine | peptide hydrolyzed and available as free tyrosine and glutamic acid ([13]; 60 min post-injection): at least 96% | injected γ-GluTyr remaining in the plasma ([13]; 60 min post-injection, assumed total plasma volume of 4 ml): about 4% | plasma γ-GluTyr ([13]; anesthetized mice, 2.8 μmol i.v., 60 min): 12 to 25 µM | injected γ-GluTyr excreted in the urine ([13]; anesthetized mice, 2.8 μmol i.v., at the end of 60 min): ≤ 0.13% | partitioning into red blood cells ([13]; previous studies): not partitioned into red blood cells
SMILES: N[C@@H](CCC(=O)N[C@@H](Cc1ccc(O)cc1)C(=O)O)C(=O)O [γ-GluTyr, gamma-L-glutamyl-L-tyrosine]
